One assay concerns COLO-205. As to the kind of experiment: Xenograft model, COLO-205. The following applies: i.p., 12 days. Format: in vivo, mouse. The text has this:
(§1) In Vivo Anti-Neoplastic (or Anti-Tumour) Effect of HDAC Inhibiting Agents
(§2) The efficacy of the selected compounds of the invention can then be determined using in vivo animal (mouse) xenograft studies. The animal xenograft model is one of the most commonly used in vivo cancer models for studying the pharmaceutically effective dosage, administration route, frequency and interval.
(§3) Athymic nude mice (Female, 5-6 week old, BALB/c, nu/nu, approximately 18-20 g body weight) are obtained from Vital River. The animals are kept on a 12 h light/dark cycle (0700-1900); food and water are provided ad libitum. All in vivo experiments are carried out in a specific pathogen-free facility (22° C.). The human cancer […] transplant model in athymic nude mice is constructed using xenograft cell lines colon cancer cell line colo205, breast cancer cell line MDA-MB435, and lung cancer cell line A549, all obtained from ATCC. Cultured cells are removed from culture plate wall by digestion, collected and suspended in cell culture medium containing no FBS, at a concentration of 5×10^6/0.2 ml, and brought to animal facility on ice. is 0.2 ml cell suspension is given to mice via rear left auxilliary subcutaneous scapular injection, using Size 6 needle. Animals are measured every 2-3 days on the size of tumor formation. After two weeks, those tumors that have been well grown without leak are removed from animals under sterile condition, split into several small fractions (2-3 mm in diameter), and injected s.c. into the rear left auxilliary subcutaneous scapular of animals. […] While the animas being treated, body weight of the animal and size of the tumor are measured every 3 days, with mortality also recorded. […] Tumors are removed, weighed, and measured. […] Tumor-inhibition rate, mortality, as well as relative tumor proliferationrate T/C (%) are calculated. […]
(§4) Significant differences in tumor growth rate were determined by analysis of variance (Table 5).

The next assay relates to MDA-MB-435. As to the kind of experiment: Xenograft model, MDA-MB-435. It counts as in vivo, mouse. As to conditions: i.p., 15 days.
Description: as §1, §2, §3, §4

Another assay relates to MDAMB231. In words: Cell-based proliferation assay (SRB), MDAMB231. As to conditions: Homo sapiens, MDA-MB-231; Table 4. Here is the method: (§5) Cell-Based Proliferation Assay for Determination of GI50 Values
(§6) A rapid multiwell plate assay using Sulforhodamine B (SRB) protein stain was adopted to evaluate the growth inhibitory effects of the compounds of the present invention. The screening panel of cancer cell lines includes Colo205 and HCT116 colon cancer cells, MDA-MB231 and MDA-MB435 chest cancer cells, A549 lung cancer cells, and Chinese hamster ovary cell line CHO, which were obtained from ATCC.
(§7) The cell line Colo205 is grown in RPMI 1640 medium containing 2 mM L-glutamine, 5% fetal bovine serum, and 1.0 mM sodium pyruvic acid. Cell lines A549 and MDA-MB231 are grown in RPMI 1640 medium containing 2 mM L-glutamine and 5% fetal bovine serum. The cell line MDA-MB435 is grown in DMEM medium containing 2 mM L-glutamine and 5% fetal bovine serum. The cell lines HCT 116 is grown in IMEM medium containing 2 mM L-glutamine and 5% fetal bovine serum. The CHO cell line, used as a normal control on toxicity, is grown in a special medium for cell line. For a typical screening experiment, A549 and Colo205 cells are inoculated into 96-well microtiter plates, with 100 μL per well, and 2000 and 5000 cells per well respectively for either cell line. MDA-MB435, HCT116, MDA-MB231 and CHO cells are also inoculated into 96-well microtiter plates, with 6000 cells per well. After cell inoculation, the microtiter plates are incubated at 37° C., 5% CO2, and 100% relative humidity for 24 hr in order to make cells adhere to well wall.
(§8) After 24 h incubation or time zero for drug addition, with each cell line 50 μl of cold 50% (w/v) TCA is added to wells used for control to fix cells in situ. Also at time zero, cells in other wells are treated with 100 μl of compound of different concentrations for 24 hr, 48 hr, and 72 hr respectively, with varying final compound concentration (0.1 μM, 1 μM, 5 μM 10 μM). For each treatment duration at each compound concentration, there are triplicate wells, as well as an array of control wells including a blank control well (cell culture medium only, no cells), a no-compound control well (adding same volume of cell culture medium but no compound), a positive control well (treated with Suberoylanilide hydroxamic acid (SAHA)), and normal cell well control (CHO cells). Following the addition of compounds, cell plates are incubated for 24 h, 48 h or 72 h per treatment group at 37° C., 5% CO2, and 100% relative humidity. The Treatment is then terminated by addition of cold TCA and incubation of 1 hr at 4° C. The supernatant is discarded, and all wells are washed five times with de-ioned water and air dried. Then each well is added with 100 μl sulforhodamine B (SRB) solution (0.4% (w/v) made in 1% acetic acid) and cell plates are incubated for 20-30 minutes at room temperature. After staining, unbound dye is removed by washing five times with 1% acetic acid and the plates are air dried. Bound stain is subsequently solubilized with 10 mM (200 μL) Tris base with the help of 5 min platform vibration or pipetting up and down, and the absorbance is read on an automated plate reader (M5 detection system, MD Group Ltd.) at a wavelength of 565 nm (calibrated zero reading of blank control at wavelength of 690 nm). The analytical software, XL-fit has been used to generate GI50 from a series of data thus obtained.

The subject of a further assay is HL-60. In words: Cell-based proliferation assay (SRB), HL-60. As to conditions: Homo sapiens.
The subject of a further assay is HCT-116. In words: Xenograft model, HCT-116. It counts as in vivo, mouse. As to conditions: i.p.
For the next assay, the system named is HCT116. In words: Cell-based proliferation assay (SRB), HCT116. The following applies: Homo sapiens. Here is the method:
as §5, §6, §7, §8

In another assay the test system is SKOV-3. In words: Xenograft model, SKOV-3. Format: in vivo, mouse. As to conditions: i.p.
A further assay concerns PC-3. In words: Xenograft model, PC-3. It counts as in vivo, mouse. As to conditions: i.p., 15 days.
In another assay the test system is BXPC-3. As to the kind of experiment: Cell-based proliferation assay (SRB), BXPC-3. As to conditions: Homo sapiens.

Molecules are shown by their SMILES.

On to `O=C(CCCCCCC(=O)Nc1ccccc1)NO` [SAHA, suberoylanilide hydroxamic acid, reference compound], for which the “T/C(%) COLO-205” value in the assay with COLO-205 (80 mg/kg) was >60% (80,12). Also, the “T/C(%) MDA-MB-435” value with MDA-MB-435 (80 mg/kg) was >60% (80,15). The 50% growth inhibitory concentration (GI50) in the assay on MDAMB231 is 5.1 µM; with HL-60 (HL-60, Table 3), 2 µM; in the assay with HCT116 (HCT-116, Table 3) it was 1.52 µM; in the assay with BXPC-3 (BXPC-3, Table 3), 5.68 µM. Further, in the assay with HCT-116 (80 mg/kg, 15 days), the “T/C(%) HCT-116” value was >60% (80,15). For the same compound, the “T/C(%) SKOV-3” value in the assay with SKOV-3 (80 mg/kg, 20 days) is on record as >60% (80,20). Also, the “T/C(%) PC-3” value with PC-3 (80 mg/kg) is 37% (80,15).

In the case of `CCCCc1nc2cc(/C=C/C(=O)NO)ccc2n1CCN(CC)CC` [SB939, reference compound], the “T/C(%) COLO-205” value in the assay with COLO-205 (30 mg/kg) is 55% (30,12). Further, the “T/C(%) MDA-MB-435” value with MDA-MB-435 (30 mg/kg) was 58% (30,15). Moreover, the concentration for 50% growth inhibition (GI50) in the assay on MDAMB231 is 2.35 µM; with HL-60 (HL-60, Table 3) it was 0.645 µM; with HL-60 (HL-60, Table 4), 0.645 µM; in the assay with HCT116 (HCT-116, Table 3), 1.35 µM; with BXPC-3 (BXPC-3, Table 3), 6.78 µM; in the assay with BXPC-3 (BXPC-3, Table 4), 6.78 µM. The “T/C(%) HCT-116” value in the assay with HCT-116 (30 mg/kg, 14 days) is 30% (30,14). In addition, the “T/C(%) SKOV-3” value with SKOV-3 (30 mg/kg, 20 days) is listed as >60% (30,20). In addition, the “T/C(%) PC-3” value with PC-3 (30 mg/kg) was >60% (30,15).

With `CCCCCNc1cc(/C=C/C(=O)NO)ccc1SCCN(CC)CC` [Example 2, 3-(4-(2-(diethylamino)ethylthio)-3-(pentylamino)phenyl)-N-hydroxy-acrylamide], the “T/C(%) COLO-205” value with COLO-205 (200 mg/kg) is 42% (200,12). The “T/C(%) MDA-MB-435” value with MDA-MB-435 (200 mg/kg) is >60% (200,15). For the same compound, the GI50 turned out to be 3.5 µM in the assay on MDAMB231; 3.51 µM in the assay on HL-60 (HL-60, Table 3); 3.51 µM in the assay with HL-60 (HL-60, Table 4); 3.99 µM in the assay on HCT116 (HCT-116, Table 3); 3.99 µM with HCT116 (HCT-116, Table 4); 6.89 µM with BXPC-3 (BXPC-3, Table 3). Besides, the “T/C(%) HCT-116” value with HCT-116 (300 mg/kg, 14 days) was 31% (300,14). Further, the “T/C(%) SKOV-3” value in the assay on SKOV-3 (200 mg/kg, 21 days) is on record as 45% (200,21). In the assay on PC-3 (200 mg/kg), the “T/C(%) PC-3” value is given as 43% (200,15).

As usually defined, the GI50 is the concentration giving 50% growth inhibition. A lower GI50 goes with more potent growth inhibition.
